Molecules are shown by their SMILES.

These results are taken from patent US20110306621A1, “ACYLGUANIDINE DERIVATIVES” (priority 2009, published 2011).

T1 sequence (P47898 whole entry): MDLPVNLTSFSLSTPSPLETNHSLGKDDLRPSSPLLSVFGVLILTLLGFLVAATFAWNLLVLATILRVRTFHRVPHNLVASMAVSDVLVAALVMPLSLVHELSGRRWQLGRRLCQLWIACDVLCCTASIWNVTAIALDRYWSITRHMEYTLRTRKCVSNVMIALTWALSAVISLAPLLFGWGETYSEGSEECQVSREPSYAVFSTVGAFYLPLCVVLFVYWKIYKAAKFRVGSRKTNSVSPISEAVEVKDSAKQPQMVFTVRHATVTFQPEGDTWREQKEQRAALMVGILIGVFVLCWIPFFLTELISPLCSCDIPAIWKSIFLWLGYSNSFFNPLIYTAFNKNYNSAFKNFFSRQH

This test has as its target T1, human 5-HT5A receptor (Homo sapiens, UniProt P47898).
T1 construct: expressed in transfected cells; membranes used
The test is described as follows: Test on a human 5-HT5A receptor binding inhibition ([3H]5-CT). The following applies: membrane from HEK293 cells for forced expression of human 5-HT5A receptor; Ki calculated from IC50 and Kd of [3H]5-CT (4.95 nM). The method, then: The ORF (open reading frame; protein coding region) of a human 5-HT5A receptor (Genbank AF498985) was cloned from a human hippocampus cDNA library, and then inserted into a pCR2.1 vector (Invitrogen), and Escherichia coli containing the plasmid was cultured in a large amount. Next, the full-length cDNA sequence of the human 5-HT5A receptor was analyzed, and recombined into a pcDNA3.1 vector (Invitrogen) as an expression vector and cultured in a large amount. HEK293 established cells (ATCC) derived from the human fetal kidney were seeded, the expression plasmid (1 μg) obtained above were added thereto with LIPOFECTAMINE 2000 (Invitrogen; 2 μl), the gene was transfected into HEK293 cells, and the expression cells were screened with a drug-resistant marker, Geneticin (G418 sulfate 500 μg/ml; Kanto Chemical Co., Inc.). Thus prepared recombinant cells which expressed the gene were cultured in a medium containing D-MEM (Dulbecco's modified eagle medium, Sigma), 10% FCS (Fetal calf serum: fetal bovine serum), 1% Pc./Sm (Penicillin/Streptomycin, Invitrogen), and 500 μg/ml G418 for 3 days. These experimental operations followed a manual for gene operation experiment and an instruction appended in a reagent, and the like, such as a known method (Sambrook, J. et al, Molecular Cloning-A Laboratory Manual”, Cold Spring Harabor laboratory, NY, 1989).
HEK293 cells for forced expressions of a human 5-HT5A receptor were cultured in a F500 plate, and scraped with a scraper. After centrifugation, the precipitate was collected, and an incubation buffer (50 mM Tris (HCl) (pH 7.4), 10 mM MgSO4, and 0.5 mM EDTA (ethylenediamine tetraacetic acid)) was added thereto. After homogenization, it was further centrifuged, and the incubation buffer was added to the precipitate, followed by thoroughly suspending. The operation was repeated, and protein concentration was measured, thereby completing preparation of the membrane.
A solution of the compound to be tested and 100 μM 5-CT (5-carboxamidetriptamine) in DMSO was added to a 96-well plate at 2 μl/well, suspended in an incubation buffer, and a membrane from HEK293 cells for forced expressions of a human 5-HT5A receptor prepared at 200 μg/ml was added at 100 μl/well. After incubation at room temperature for 15 minutes, a [^3H]5-CT solution (2 nM [^3H]5-CT, incubation buffer) was added thereto at 100 μl/well.
Separately, 100 μl of the solution was distributed into a liquid scintillation vial, and 2 ml of Aquasol II (registered trademark) was added thereto, followed by stirring. Then, radioactivity was measured by a liquid scintillation counter. It was incubated at 37° C. for 60 minutes. The reaction mixture was sucked into 96-well GF/C filter plate that had been pre-treated with 0.2% polyethyleneimine, and washed six times with an ice-cooled, 50 mM Tris (pH 7.5) buffer. The GF/C filter plate was dried.
Microscint TMPS (registered trademark) was added thereto at 40 μl/well. Radioactivity remaining on the GF/C filter plate was measured by a top counter.
The [^3H]5-CT binding inhibiting activity by the compound to be tested in each experiment was determined as an IC50 value with a radioactivity upon addition of DMSO alone being 0% inhibition, and a radioactivity upon addition of 1 μM 5-CT being 100% inhibition. Separately, Ki values were calculated from the Kd value of the [^3H]5-CT determined from Scatchard analysis, by the following equation.
Ki=IC50 (1+Concentraion of ligand added/Kd (4.95 nM))
Take `N#Cc1sccc1-c1cccc2ccc(C(=O)N=C(N)N)cc12` [Example 51]: the inhibitory constant (Ki) (as a rule, a dissociation constant, usually derived from enzyme kinetics or from competition with a known ligand) was 3 to 30 nM.
As for `COc1nc(C)ccc1-c1c(Cl)ccc2ccc(C(=O)N=C(N)N)cc12` [Example 174], the figure is 0.3 to 3 nM; as for `NC(N)=NC(=O)c1ccc2cccc(-c3cccnc3Cl)c2c1` [Example 19], 3 to 30 nM.
As for `NC(N)=NC(=O)c1ccc2cccc(-c3cccc(Cl)c3F)c2c1` [Example 69], the figure is 0.3 to 3 nM.
Then `COc1cccc(F)c1-c1cccc2ccc(C(=O)N=C(N)N)cc12` [Example 18], with 0.3 to 3 nM; and `Cc1cc(Cl)cnc1-c1cccc2ccc(C(=O)N=C(N)N)cc12` [Example 152], with 3 to 30 nM.
On to `NC(N)=NC(=O)c1ccc2cccc(-c3ccc(F)c4c3C(=O)CC4)c2c1` [Example 126], for which the inhibitory constant (Ki) was 30 to 300 nM.
As for `NC(N)=NC(=O)c1ccc2cccc(-c3cccc(F)c3F)c2c1` [Example 71], the figure is 0.3 to 3 nM.
For the compound `NC(N)=NC(=O)c1ccc2cccc(-c3ncc(Cl)cc3F)c2c1` [Example 180], the inhibition constant Ki was 3 to 30 nM.
Then `COc1cc(Cl)ccc1-c1cccc2ccc(C(=O)N=C(N)N)cc12` [Example 57], with 0.3 to 3 nM; and `COc1ccc(F)c(-c2cccc3ccc(C(=O)N=C(N)N)cc23)c1` [Example 41], with 3 to 30 nM; and `COc1cccc(-c2cccc3ccc(C(=O)N=C(N)N)cc23)n1` [Example 159], with 3 to 30 nM.
Then `NC(N)=NC(=O)c1ccc2cccc(-c3ncc(F)cc3F)c2c1` [Example 190], with 0.3 to 3 nM; and `COc1ccc(-c2cccc3ccc(C(=O)N=C(N)N)cc23)c(F)c1` [Example 82], with 0.3 to 3 nM; and `NC(N)=NC(=O)c1ccc2cccc(-c3ccc(Cl)cc3Cl)c2c1` [Example 61], with 0.3 to 3 nM.
Then `NC(N)=NC(=O)c1ccc2cccc(-c3ccc(Cl)cc3F)c2c1` [Example 59], with 0.3 to 3 nM; and `COc1ncccc1-c1cccc2ccc(C(=O)N=C(N)N)cc12` [Example 8], with 3 to 30 nM.
For `NC(N)=NC(=O)c1ccc2ccc(F)c(-c3ccncc3Cl)c2c1` [Example 160], the Ki is 0.3 to 3 nM.
As for `CCOc1nccc(-c2cccc3ccc(C(=O)N=C(N)N)cc23)c1C#N` [Example 64], the figure is 3 to 30 nM.
As for `N#Cc1cccc(-c2cccc3ccc(C(=O)N=C(N)N)cc23)c1F` [Example 80], the figure is 0.3 to 3 nM; as for `COc1cccc(-c2cccc3ccc(C(=O)N=C(N)N)cc23)c1C#N` [Example 99], 3 to 30 nM; as for `NC(N)=NC(=O)c1ccc2cccc(-c3ncc(C4CC4)cc3Cl)c2c1` [Example 192], 3 to 30 nM.
Then `NC(N)=NC(=O)c1ccc2cccc(-c3ccc(F)nc3)c2c1` [Example 23], with 3 to 30 nM.
In the case of `NC(N)=NC(=O)c1ccc2cccc(-c3cc(C4CC4)ncc3Cl)c2c1` [Example 185], the Ki was 0.3 to 3 nM.
As for `NC(N)=NC(=O)c1ccc2cccc(-c3cccc(Cl)c3Cl)c2c1` [Example 75], the figure is 0.3 to 3 nM.
Then `NC(N)=NC(=O)c1ccc2cccc(-c3ccnc(Cl)c3F)c2c1` [Example 172], with 3 to 30 nM.
As for `N#Cc1ccc(F)c(-c2cccc3ccc(C(=O)N=C(N)N)cc23)c1` [Example 81], the figure is 0.3 to 3 nM; as for `NC(N)=NC(=O)c1ccc2cccc(-c3cc(Cl)ncc3Cl)c2c1` [Example 38], 3 to 30 nM.
Take `Cc1ccc2ccc(C(=O)N=C(N)N)cc2c1-c1ccc(F)cc1` [Example 11]: the Ki is 0.3 to 3 nM.
In the case of `COc1cc(F)cc(F)c1-c1cccc2ccc(C(=O)N=C(N)N)cc12` [Example 42], the inhibitory constant (Ki) was 0.3 to 3 nM.
As for `NC(N)=NC(=O)c1ccc2cccc(-c3c(F)cc(F)cc3F)c2c1` [Example 14], the figure is 0.3 to 3 nM; as for `NC(N)=NC(=O)c1ccc2cccc(-c3ccc(C(F)(F)F)cn3)c2c1` [Example 189], 3 to 30 nM.
As for `Cc1cnc(-c2cccc3ccc(C(=O)N=C(N)N)cc23)c(Cl)c1` [Example 200], the figure is 3 to 30 nM; as for `Cc1nc(C)c(-c2cccc3ccc(C(=O)N=C(N)N)cc23)s1` [Example 17], 3 to 30 nM.
As for `NC(N)=NC(=O)c1ccc2cccc(-c3c(O)cccc3F)c2c1` [Example 104], the figure is 0.3 to 3 nM; as for `NC(N)=NC(=O)c1ccc2cccc(-c3c(F)cccc3OC(F)F)c2c1` [Example 107], 0.3 to 3 nM; as for `NC(N)=NC(=O)c1ccc2cccc(-c3ccnc(Cl)c3)c2c1` [Example 53], 3 to 30 nM.
In the case of `COc1ccccc1-c1c(Cl)ccc2ccc(C(=O)N=C(N)N)cc12` [Example 124], the inhibition constant Ki was 0.3 to 3 nM.
`COc1ccc(-c2c(C)ccc3ccc(C(=O)N=C(N)N)cc23)cc1` [Example 12]: the Ki was 0.3 to 3 nM.
As for `NC(N)=NC(=O)c1ccc2cccc(-c3ccccc3O)c2c1` [Example 13], the Ki was 0.3 to 3 nM.
Turning to `NC(N)=NC(=O)c1ccc2ccc(Cl)c(-c3ccccc3F)c2c1` [Example 110], the inhibition constant (Ki) was 0.3 to 3 nM.
As for `NC(N)=NC(=O)c1ccc2cccc(-c3cc(C(F)(F)F)ncn3)c2c1` [Example 183], the figure is 3 to 30 nM.
As for `NC(N)=NC(=O)c1ccc2cccc(-c3c(F)cc(O)cc3F)c2c1` [Example 142], the figure is 0.3 to 3 nM; as for `NC(N)=NC(=O)c1ccc2cccc(C3=CCOCC3)c2c1` [Example 22], 3 to 30 nM; as for `NC(N)=NC(=O)c1ccc2cccc(-c3cccc4c3OCO4)c2c1` [Example 92], 0.3 to 3 nM.
Then `NC(N)=NC(=O)c1ccc2cccc(-c3cnccc3Cl)c2c1` [Example 73], with 0.3 to 3 nM; and `NC(N)=NC(=O)c1ccc2cccc(-c3cccc4ccccc34)c2c1` [Example 102], with 3 to 30 nM; and `N#Cc1ccc(-c2cccc3ccc(C(=O)N=C(N)N)cc23)c(O)c1` [Example 132], with 0.3 to 3 nM.
As to `NC(N)=NC(=O)c1ccc2cccc(-c3c(F)ccc(F)c3O)c2c1` [Example 177], the Ki was 0.3 to 3 nM.
Take `NC(N)=NC(=O)c1ccc2cccc(-c3cccc4cccnc34)c2c1` [Example 123]: the Ki is 3 to 30 nM.
Then `NC(N)=NC(=O)c1ccc2cccc(-c3cccc(C(F)(F)F)n3)c2c1` [Example 154], with 3 to 30 nM.
Then `COc1cc(-c2cccc3ccc(C(=O)N=C(N)N)cc23)ccn1` [Example 112], with 3 to 30 nM; and `NC(N)=NC(=O)c1ccc2cccc(-c3cccnc3F)c2c1` [Example 62], with 0.3 to 3 nM.
Then `NC(N)=NC(=O)c1ccc2cccc(-c3ccc(Cl)cn3)c2c1` [Example 153], with 3 to 30 nM; and `NC(N)=NC(=O)c1ccc2cccc(-c3ccnc(F)c3)c2c1` [Example 52], with 3 to 30 nM.
Turning to `N#Cc1ccc(-c2cccc3ccc(C(=O)N=C(N)N)cc23)s1` [Example 50], the inhibition constant (Ki) is 0.3 to 3 nM.
In the case of `NC(N)=NC(=O)c1ccc2cccc(-c3sccc3Cl)c2c1` [Example 49], the Ki was 0.3 to 3 nM.
As for `COc1ccc(F)cc1-c1cccc2ccc(C(=O)N=C(N)N)cc12` [Example 34], the figure is 3 to 30 nM; as for `NC(N)=NC(=O)c1ccc2cccc(-c3cccc4c3OCC4)c2c1` [Example 95], 0.3 to 3 nM; as for `COc1ccncc1-c1cccc2ccc(C(=O)N=C(N)N)cc12` [Example 98], 30 to 300 nM.
Then `NC(N)=NC(=O)c1ccc2ccc(Cl)c(-c3ccncc3F)c2c1` [Example 156], with 0.3 to 3 nM; and `Cc1ccc2ccc(C(=O)N=C(N)N)cc2c1-c1ccncc1F` [Example 114], with 0.3 to 3 nM; and `NC(N)=NC(=O)c1ccc2cccc(-c3c(F)cc(F)c(O)c3F)c2c1` [Example 143], with 0.3 to 3 nM.
As for `COc1cc(F)c(-c2cccc3ccc(C(=O)N=C(N)N)cc23)c(F)c1` [Example 83], the figure is 0.3 to 3 nM.
